“Also recorded” adds a separate entry of the source.
Assays:
[1] = tested on: primary human hepatocytes (PHHs); assay: IRES screening (Table 28), Gaussia luciferase LNP-oRNA in primary human hepatocytes (PHHs); details: protein expression relative to positive control (SEQ ID NO 3282 = 1)
Description: (§1) Exemplary constructs included a 5′ enhanced intron element, a 5′ enhanced exon element, a putative IRES, a coding element encoding Gaussia Luciferase, a 3′ enhanced exon element, and a 3′ enhanced intron element.
(§2) Purified oRNA was nanoprecipitated with lipids to form LNP-oRNA constructs. LNPs were formulated first by creating empty lipid nanoparticles using a Precision Nanosystems Ignite instrument with a “NextGen” mixing chamber. Ethanol phase contained Lipid 39 from Table 10b, DSPC, cholesterol, and DMG-PEG 2000 (Avanti Polar Lipids, Inc., Alabaster, AL) at a molar ratio of 45:9:44:2 was combined with 50 mM sodium acetate buffer at pH 4.5. A 3:1 aqueous to ethanol mixing ratio was used. The empty LNPs were then dialyzed in 1 L of 1×PBS and exchanged 2 times over 18 hours. […] A 3:1 aqueous to empty lipid nanoparticle mixing ratio was used. The LNPs final ionizable lipid to RNA phosphate ratio was at 6.0.
(§3) Primary human skeletal myotubes (MYOs), primary human hepatocytes (PHHs), and activated primary human T cells (TCLs) were treated with formulated LNP-oRNA in triplicate. Protein expression in supernatant was assessed by luminescence measurements 48 hours following transfection.
(§4) Total luminescent signal was normalized across replicate plates to control for plate-wide differences between replicates due to flash assay readout timing. Plates with positive controls having <2× signal over background were excluded from analysis. Background was subtracted based on empty wells. Each test well replicate was normalized to its respective plate control and then the replicates were averaged.
(§5) Measured numbers are normalized to a control (caprine kobuvirus IRES, SEQ ID NO: 3282) and represented as a fold change.

[2] = tested on: activated primary human T cells (TCLs); assay: IRES screening (Table 28), Gaussia luciferase LNP-oRNA in activated primary human T cells (TCLs); details: protein expression relative to positive control (SEQ ID NO 3282 = 1)
Description: as §1, §2, §3, §4, §5

[3] = tested on: primary human skeletal myotubes (MYOs); assay: IRES screening (Table 28), Gaussia luciferase LNP-oRNA in primary human skeletal myotubes (MYOs); details: protein expression relative to positive control (SEQ ID NO 3282 = 1)
Description: as §1, §2, §3, §4, §5

splenic immune cells = assay: Cre circRNA LNP transfection of splenic immune cells in Ai9 Cre reporter mice (tdTomato); assay type: in vivo; details: 0.5 mg/kg Cre circRNA LNP i.v., 48 hr, named by ionizable lipid, 0.5 mg/kg
Description: Circular RNAs encoding Cre recombinase (Cre) are encapsulated into lipid nanoparticles as previously described. Female, 6-8 week old B6.Cg-Gt(ROSA)26Sortm9(CAG-tdTomato)Hze/J (Ai9) mice were dosed with lipid nanoparticles at 0.5 mg/kg RNA intravenously. Fluorescent tdTomato protein was transcribed and translated in Ai9 mice upon Cre recombination, meaning circular RNAs have been delivered to and translated in tdTomato+ cells. After 48 hr, mice were euthanized and the spleens were harvested, processed into a single cell suspension, and stained with various fluorophore-conjugated antibodies for immunophenotyping via flow cytometry.
Ai9 mice (B6.Cg-Gt(ROSA)26Sortm9(CAG-tdTomato)Hze/J, female, 6-8 weeks, n=3 per group) were injected i.v. with 0.5 mg/kg Cre circRNA LNPs or PBS. Ai9 mice transcribe and translate the fluorescent reporter tdTomato upon Cre recombination; meaning cells which are tdTomato+ have successfully been transfected with Cre circRNA. […] Flow cytometry was performed using an Attune Nxt Flow Cytometer (Thermo).

| Compound | PHH AVG [Fold Change] [1] | TCL AVG [Fold Change] [2] | MYO AVG [Fold Change] [3] | splenic immune cells expressing tdTomato (splenic immune cells) |
| --- | --- | --- | --- | --- |
| CCCCCCC(CCCC)COC(=O)CCCCCCCN(CCCCO)CCCCCCCC(=O)OCC(CCCC)CCCCCC (centres unmarked) [Lipid 49] | 0.6215 Fold Change | 0.07252 Fold Change | 0.1952 Fold Change |  |
| CCCCCCCCC(CCCCCC)C(=O)OCCCCCCN(CCCCCCOC(=O)C(CCCCCC)CCCCCCCC)CCCC(=O)OCC (centres unmarked) [Lipid 48] | 0.4247 Fold Change | 0.002803 Fold Change | 0.1303 Fold Change |  |
| CCCCCCCCC(CCCCCC)C(=O)OCCCCCCN(CCCCCCOC(=O)C(CCCCCC)CCCCCCCC)CCCn1ccnc1C (centres unmarked) [Lipid 10a-27] |  |  |  | significantly higher myeloid and T cell transfection compared with Lipid 93-S14; also recorded: effective at delivering circular RNAs to many splenic immune cell subsets |
| CCCCCCC(CCCC)C(=O)OCCCCCCCCCN(CCCCO)CCCCCCCCCOC(=O)C(CCCC)CCCCCC (centres unmarked) [Lipid 25] | 0.1559 Fold Change | 0.452 Fold Change | 0.0738 Fold Change |  |
| CCCCCCCCC(CCCCCC)C(=O)OCCCCCCCCCCCCN(CCCO)CCCCCCCCCCCCOC(=O)C(CCCCCC)CCCCCCCC (centres unmarked) [Lipid 38] | 0.2209 Fold Change | 0.02186 Fold Change | 0.07838 Fold Change |  |
| CCCCCCC(CCCC)C(=O)OCCCCCCN(CCO)CCCCCCOC(=O)C(CCCC)CCCCCC (centres unmarked) [Lipid 29] | 0.008274 Fold Change | 0.01096 Fold Change | 0 Fold Change |  |
| CCCCCCCCC(CCCCCC)COC(=O)CCCCCCCN(CCO)CCCCCCCC(=O)OCC(CCCCCC)CCCCCCCC (centres unmarked) [Lipid 46] | 0.503 Fold Change | 0.2472 Fold Change | 0.2249 Fold Change |  |
| CCCCCCCCC(CCCCCC)C(=O)OCCCCCCN(CCCCCCOC(=O)C(CCCCCC)CCCCCCCC)CC(O)CC (centres unmarked) [Lipid 40] | 0.2391 Fold Change | 0.05108 Fold Change | 0.199 Fold Change |  |
| CCCCCCCCC(CCCCCC)COC(=O)CCCCCN(CCCCCC(=O)OCC(CCCCCC)CCCCCCCC)CCCC(=O)OCC (centres unmarked) [Lipid 39] | 0.003901 Fold Change | 0.003256 Fold Change | 0.0002919 Fold Change |  |
| CCCCCCCCC(CCCCCC)C(=O)OCCCCCCCCCCCCN(CCCCO)CCCCCCCCCCCCOC(=O)C(CCCCCC)CCCCCCCC (centres unmarked) [Lipid 23] | 0.0008387 Fold Change | 0.002417 Fold Change | 0 Fold Change |  |
| CCCCCCCCC(CCCCCC)C(=O)OCCCCCCN(CCCCCCOC(=O)C(CCCCCC)CCCCCCCC)CCCOC (centres unmarked) [Lipid 41] | 0.01033 Fold Change | 0.02752 Fold Change | 0.0004126 Fold Change |  |
| CCCCCCC(CCCC)C(=O)OCCCCCCN(CCCO)CCCCCCOC(=O)C(CCCC)CCCCCC (centres unmarked) [Lipid 28] | 0.1221 Fold Change | 0.1126 Fold Change | 0.01764 Fold Change |  |
| CCCCC(CC)C(=O)OCCCCCCCCCN(CCCCO)CCCCCCCCCOC(=O)C(CC)CCCC (centres unmarked) [Lipid 24] | 0.0000246 Fold Change | 0.003111 Fold Change | 0 Fold Change |  |
| CCCCC(CC)C(=O)OCCCCCCCCCN(CCCO)CCCCCCCCCOC(=O)C(CC)CCCC (centres unmarked) [Lipid 43] | 0.456 Fold Change | 0.2866 Fold Change | 0.11 Fold Change |  |
| CCCCCCCCCCCCC(CCCCCCCCCC)C(=O)OCCCCCCN(CCCCO)CCCCCCOC(=O)C(CCCCCCCCCC)CCCCCCCCCCCC (centres unmarked) [Lipid 27] | 0.09892 Fold Change | 0.02442 Fold Change | 0.01866 Fold Change |  |
| CCCCCCCCC(CCCCCC)COC(=O)CCCCCCCCCN(CCCCO)CCCCCCCCCC(=O)OCC(CCCCCC)CCCCCCCC (centres unmarked) [Lipid 21] | 0.1363 Fold Change | 0.0748 Fold Change | 0.02126 Fold Change |  |
| CCCCCCCCC(CCCCCC)C(=O)OCCCCCCCCCN(CCCCO)CCCCCCCCCOC(=O)C(CCCCCC)CCCCCCCC (centres unmarked) [Lipid 22] | 0.0926 Fold Change | 0.0309 Fold Change | 0.009137 Fold Change |  |
| CCCCCCCCC(CCCCCC)C(=O)OCCCCCCN(CCCCCCOC(=O)C(CCCCCC)CCCCCCCC)CCCCNC(C)=O (centres unmarked) [Lipid 36] | 0 Fold Change | 0.0009344 Fold Change | 0 Fold Change |  |
| CCCCCCCCC(CCCCCC)C(=O)OCCCCCCN(CCCCCCOC(=O)C(CCCCCC)CCCCCCCC)CCCCOC(C)=O (centres unmarked) [Lipid 33] | 0.4409 Fold Change | 0.2088 Fold Change | 0.3574 Fold Change |  |
| CCCCCCCCC(CCCCCC)C(=O)OCCCCCCN(CCCCCCOC(=O)C(CCCCCC)CCCCCCCC)C(CC)CO (centres unmarked) [Lipid 31] | 0.6943 Fold Change | 0.4863 Fold Change | 0.5881 Fold Change |  |
| CCCCCCCCCCC(CCCCCCCC)C(=O)OCCCCCCN(CCCCO)CCCCCCOC(=O)C(CCCCCCCC)CCCCCCCCCC (centres unmarked) [Lipid 26] | 0.01252 Fold Change | 0 Fold Change | 0.002759 Fold Change |  |
| CCCCCCCCC(CCCCCC)C(=O)OCCCCCCN(CCCCCCOC(=O)C(CCCCCC)CCCCCCCC)CC(O)CO (centres unmarked) [Lipid 30] | 0.3984 Fold Change | 0.373 Fold Change | 0.1967 Fold Change |  |
| CCCCCCC(CCCC)C(=O)OCCCCCCN(CCCCO)CCCCCCOC(=O)C(CCCC)CCCCCC (centres unmarked) [Lipid 42] | 0.3425 Fold Change | 0.09322 Fold Change | 0.07198 Fold Change |  |
| CCCCCCCCC(CCCCCC)C(=O)OCCCCCCN(CCCCCCOC(=O)C(CCCCCC)CCCCCCCC)CCCC(=O)OCC (centres unmarked) [Lipid 34] | 0.4644 Fold Change | 0.2638 Fold Change | 0.2168 Fold Change |  |
| CCCCCCCCC(CCCCCC)C(=O)OCCCCCCN(CCC#N)CCCCCCOC(=O)C(CCCCCC)CCCCCCCC (centres unmarked) [Lipid 47] | 0.08942 Fold Change | 0.02259 Fold Change | 0.00246 Fold Change |  |
| CCCCCCCCC(CCCCCC)C(=O)OCCCCCCN(CCCCCCOC(=O)C(CCCCCC)CCCCCCCC)CCCn1ccnc1 (centres unmarked) [Lipid 10a-26] |  |  |  | significantly higher myeloid and T cell transfection compared with Lipid 93-S14; also recorded: effective at delivering circular RNAs to many splenic immune cell subsets |
| CCCCCCCCCCCCCCCC(O)C(CO)N(CCCCCCOC(=O)C(CCCCCC)CCCCCCCC)CCCCCCOC(=O)C(CCCCCC)CCCCCCCC (centres unmarked) [Lipid 32] | 0.3276 Fold Change | 0.02974 Fold Change | 0.2163 Fold Change |  |
| CCCCCCCCCCCCC(CCCCCCCCCC)C(=O)OCCCCCCN(CCCO)CCCCCCOC(=O)C(CCCCCCCCCC)CCCCCCCCCCCC (centres unmarked) [Lipid 44] | 0.01602 Fold Change | 0.01421 Fold Change | 0 Fold Change |  |
| CCCCCCCCC(CCCCCC)C(=O)OCCCCCCN(CCCC#N)CCCCCCOC(=O)C(CCCCCC)CCCCCCCC (centres unmarked) [Lipid 35] | 0.005378 Fold Change | 0.004133 Fold Change | 0 Fold Change |  |
| CCCCCCCCCCC(CCCCCCCC)C(=O)OCCCCCCN(CCCO)CCCCCCOC(=O)C(CCCCCCCC)CCCCCCCCCC (centres unmarked) [Lipid 37] | 0.2564 Fold Change | 0.0237 Fold Change | 0.03859 Fold Change |  |

Reference: patent US20250283073A1 (ORNA THERAPEUTICS, INC., priority 2021, published 2025)
